Reference: PMC12530843, “Identification of a New Interesting BAG3 Modulator Able to Disrupt Cancer‐Related Pathways” (Chemmedchem, 2025)

Legend:
HeLa cells [1] = test: Annexin V-FITC/PI apoptosis staining; type: cell-based, human; settings: 72 h
Protocol: Apoptosis in HeLa cells was evaluated using Annexin V‐FITC/PI staining. Hela cells (20 × 10^3) were seeded into 24‐well plates and incubated for 72 h with compound 2. The final concentration of DMSO for the tested compound was 0.1%, which was consistent with the percentage of DMSO used in the negative control. After treatments, cells were resuspended in a 100 μL of assay buffer per well, after which 5 μL of Annexin V‐FITC and 1 μL of PI reagents were added. […] The cells were analyzed with a Becton Dickinson FACScan flow cytometer using the Cell Quest software, version 4 (Franklin Lakes, NJ, USA).

HeLa cells [2] = test: Thioflavin T (ThT) protein misfolding staining; type: cell-based, human; settings: HeLa, 3, 6 and 12 µM, 72 h; p < 0.01 (3 µM), p < 0.001 (6, 12 µM) vs. Ctrl
Protocol: Protein misfolding was analyzed by using Thioflavin T (ThT, Sigma Aldrich, St. Louis, MO, USA) staining.^[ [39] ^] HeLa cells (4 × 10^3 cells well^−1) were grown in 96‐well plates and allowed to adhere for 24 h. The medium was then replaced, and the cells were treated with compound 2 (3, 6, and 12 µM) for 72 h. The final concentration of DMSO for the tested compound was 0.1%, which is consistent with the percentage of DMSO used in the negative control. After treatments, the culture medium was replaced, cells were washed with PBS and 100 μL well^−1 of ThT was added (final concentration, 20 µM). After incubation at 37 °C for 20 min in the dark, live cells were analyzed by using ZOE Fluorescent Cell Imager microscope (Biorad, Hercules, California, USA). Magnification, 20×. Scale bar: 100 μm (N ≥ 5). Quantitative analyses were performed in end point mode using a PerkinElmer EnSpire multimode plate reader (excitation/emission 450 nm/482 nm).

BAG3 = molecular target: T1, BAG3 (Homo sapiens, UniProt O95817); test: t-LiP-MS (targeted limited proteolysis-MS) in HeLa cell lysate; type: binding; settings: SP18 100 µM, subtilisin 30 min
T1 construct: endogenous in cells; host or cells: HeLa cell lysate
T1 sequence (O95817 whole entry): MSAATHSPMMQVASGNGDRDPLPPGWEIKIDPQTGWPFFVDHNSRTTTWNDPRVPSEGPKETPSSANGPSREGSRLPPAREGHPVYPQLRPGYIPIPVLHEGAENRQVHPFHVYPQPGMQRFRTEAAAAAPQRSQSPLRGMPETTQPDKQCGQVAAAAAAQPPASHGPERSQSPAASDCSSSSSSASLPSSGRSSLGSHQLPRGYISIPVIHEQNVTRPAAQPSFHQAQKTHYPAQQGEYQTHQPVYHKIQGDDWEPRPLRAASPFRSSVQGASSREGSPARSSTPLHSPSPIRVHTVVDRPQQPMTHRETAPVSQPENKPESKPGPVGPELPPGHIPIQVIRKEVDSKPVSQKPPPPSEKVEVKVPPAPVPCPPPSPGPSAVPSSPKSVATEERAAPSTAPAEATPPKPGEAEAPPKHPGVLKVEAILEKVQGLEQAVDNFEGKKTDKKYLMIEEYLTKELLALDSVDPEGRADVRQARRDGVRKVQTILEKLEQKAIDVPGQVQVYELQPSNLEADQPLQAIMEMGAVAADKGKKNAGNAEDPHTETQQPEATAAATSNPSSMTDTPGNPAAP
Protocol: To develop the t‐LiP‐MS experiment, MRM methods were optimized by selecting tryptic peptides for BAG3 (UniProt Accession: O95817) using the Human PeptideAtlas data repository in combination with SRMAtlas for their daughter ion identification. First, the three best transitions for each peptide were selected (obtaining a list of 57 transitions) and tested on a tryptic‐digested HeLa cell lysate, following the protocol of Capuano et al., 2024.^[ [41] ^] For chromatographic separation, 15 µL of peptide mixture samples (dissolved in 10% formic acid (FA) to a final concentration of 2 µg µL^−1) were injected and separated on an Aeris Peptide XB C18 column (50 × 2.1 mm, 3.6 μm, 100 Å, Phenomenex, Torrance, USA) using a gradient from 5% to 95% B in 12 min (A: 0.1% FA in H2O, B: 0.1% FA in CH3CN). QTrap parameters were as follows: curtain gas (CUR) = 30; ion‐spray voltage (IS) = 5500; temperature (TEM) = 250 °C; ion source gas 1 (GS1) = 25; ion source gas 2 (GS2) = 25; declustering potential (DP) = 80; entrance potential (EP) = 15; collision cell exit potential (CXP) = 12. Data acquisition and processing were performed using Analyst software 1.6.2 (AB Sciex, Foster City, CA, USA). At the end of the preliminary experiment, 14 best transitions were selected for the final MRM method.
For the t‐Lip‐MS experiment, HeLa cell lysate ([…]) was divided into aliquots and incubated for 1 hr either with DMSO (control sample) or SP18 (100 µM in DMSO) at room temperature under shaking (Mini‐Rotator, Biosan). Samples were then first subjected to limited proteolysis with the nonspecific enzyme subtilisin (enzyme‐to‐proteins ratio of 1:1500 w/w) for 30 min, at room temperature and under continuous shaking (500 rpm, Thermomixer, Biosan) and then extensively digested with the specific protease trypsin (enzyme to proteins ratio of 1:100 w/w, overnight, room temperature, 300 RPM).^[ [42] ^] […] Fold change (Fc) (the ratio between the peak area in the treated sample and control sample) was calculated for each peptide, and only those with Fc ≥1.5 and p‐value ≤0.05 were considered protected.^[ [41] ^]

SMILES | cells undergoing apoptosis (HeLa cells [1]; 20 µM, p < 0.05 vs. control) [%] | cells undergoing apoptosis (HeLa cells [1]; 30 µM, p < 0.05 vs. control) [%] | cells undergoing apoptosis (HeLa cells [1]; 50 µM, p < 0.01 vs. control) [%] | protein misfolding and aggregate formation (ThT) (HeLa cells [2]) | Fold change (Fc) of protected BAG3 peptide V [432–445] K (BAG3; p value 0.01) | Fold change (Fc) of protected BAG3 peptide E [461–473] R (BAG3; p value 0.02) | Fold change (Fc) of protected BAG3 peptide T [231–249] K (BAG3; p value 0.04)
O=C(OCc1cn(Cc2ccc3c(c2)C(=O)c2ccccc2C3=O)nn1)c1cccc([N+](=O)[O-])c1 [Compound 2, (1‐((9,10‐Dioxo‐9,10‐dihydroanthracen‐2‐yl)methyl)‐1H‐1,2,3‐triazol‐4‐yl)methyl 3‐nitrobenzoate] | 21.6 ± 1.14 | 28.0 ± 3.41 | 40.2 ± 2.11 | significant induction of protein misfolding and aggregate formation |  |  | 
O=C(OCc1cn(Cc2ccc(C(=O)c3ccccc3)cc2)nn1)c1cccc([N+](=O)[O-])c1 [SP18] |  |  |  |  | 1.74 | 1.67 | 1.68
